Test results from ChEMBL document CHEMBL5678810.

Experiments:
[1] = molecular target: Mitogen-activated protein kinase 7 (Homo sapiens, UniProt Q13164); test: Inhibition of GST-tagged ERK5 (unknown origin) expressed in baculovirus expression system incubated for 90 mins in presence of ATP by PKLight ATP Detection Reagent based analysis
[2] = molecular target: Dual specificity mitogen-activated protein kinase kinase 5 (Homo sapiens, UniProt Q13163); test: Inhibition of GST-tagged MEK5 (unknown origin) expressed in baculovirus expression system incubated for 90 mins in presence of ATP by PKLight ATP Detection Reagent based analysis
[3] = molecular target: Ribosomal protein S6 kinase alpha-2 (Homo sapiens) (UniProt Q15349); test: Inhibition of T7 bacteriophage fused human C-terminal RSK3 Kinase domain-2 at 10 uM by KINOMEscan analysis relative to control
[4] = molecular target: Ribosomal protein S6 kinase alpha-6 (Homo sapiens) (UniProt Q9UK32); test: Inhibition of T7 bacteriophage fused human C-terminal RSK4 Kinase domain-2 at 10 uM by KINOMEscan analysis relative to control
[5] = molecular target: STE20-like serine/threonine-protein kinase (Homo sapiens) (UniProt Q9H2G2); test: Inhibition of T7 bacteriophage fused human SLK at 10 uM by KINOMEscan analysis relative to control
[6] = molecular target: T1, Dual specificity protein kinase TTK (Homo sapiens) (UniProt P33981); test: Inhibition of T7 bacteriophage fused human TTK at 10 uM by KINOMEscan analysis relative to control
T1 sequence (whole entry): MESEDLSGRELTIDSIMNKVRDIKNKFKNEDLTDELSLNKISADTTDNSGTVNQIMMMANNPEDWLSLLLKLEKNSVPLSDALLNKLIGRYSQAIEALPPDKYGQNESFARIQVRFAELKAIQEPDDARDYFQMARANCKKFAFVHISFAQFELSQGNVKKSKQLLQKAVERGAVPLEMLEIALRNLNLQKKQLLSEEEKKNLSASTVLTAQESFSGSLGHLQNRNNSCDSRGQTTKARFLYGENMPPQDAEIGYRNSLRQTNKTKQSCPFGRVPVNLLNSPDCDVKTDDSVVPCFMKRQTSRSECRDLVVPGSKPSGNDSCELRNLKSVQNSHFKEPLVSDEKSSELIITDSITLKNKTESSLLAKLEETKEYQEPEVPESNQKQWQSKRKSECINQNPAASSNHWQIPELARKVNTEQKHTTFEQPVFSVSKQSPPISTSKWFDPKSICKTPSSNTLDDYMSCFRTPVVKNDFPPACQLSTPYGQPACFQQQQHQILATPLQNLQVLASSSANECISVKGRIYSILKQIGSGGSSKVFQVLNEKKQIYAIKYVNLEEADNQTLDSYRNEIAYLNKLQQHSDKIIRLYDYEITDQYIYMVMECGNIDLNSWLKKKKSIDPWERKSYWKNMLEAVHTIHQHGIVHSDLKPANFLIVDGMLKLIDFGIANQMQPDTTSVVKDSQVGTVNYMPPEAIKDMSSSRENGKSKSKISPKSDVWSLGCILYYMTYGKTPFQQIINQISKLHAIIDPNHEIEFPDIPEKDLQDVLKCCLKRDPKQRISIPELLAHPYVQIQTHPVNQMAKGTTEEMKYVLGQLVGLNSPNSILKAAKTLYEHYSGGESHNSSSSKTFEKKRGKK

[7] = molecular target: Tyrosine-protein kinase Tec (Homo sapiens) (UniProt P42680); test: Inhibition of T7 bacteriophage fused human TEC at 10 uM by KINOMEscan analysis relative to control
[8] = molecular target: Peripheral plasma membrane protein CASK (Homo sapiens) (UniProt O14936); test: Inhibition of T7 bacteriophage fused human CASK at 10 uM by KINOMEscan analysis relative to control
Peripheral plasma membrane protein CASK (Homo sapiens), sequence (O14936 whole entry, looked up, the tested form may be a part): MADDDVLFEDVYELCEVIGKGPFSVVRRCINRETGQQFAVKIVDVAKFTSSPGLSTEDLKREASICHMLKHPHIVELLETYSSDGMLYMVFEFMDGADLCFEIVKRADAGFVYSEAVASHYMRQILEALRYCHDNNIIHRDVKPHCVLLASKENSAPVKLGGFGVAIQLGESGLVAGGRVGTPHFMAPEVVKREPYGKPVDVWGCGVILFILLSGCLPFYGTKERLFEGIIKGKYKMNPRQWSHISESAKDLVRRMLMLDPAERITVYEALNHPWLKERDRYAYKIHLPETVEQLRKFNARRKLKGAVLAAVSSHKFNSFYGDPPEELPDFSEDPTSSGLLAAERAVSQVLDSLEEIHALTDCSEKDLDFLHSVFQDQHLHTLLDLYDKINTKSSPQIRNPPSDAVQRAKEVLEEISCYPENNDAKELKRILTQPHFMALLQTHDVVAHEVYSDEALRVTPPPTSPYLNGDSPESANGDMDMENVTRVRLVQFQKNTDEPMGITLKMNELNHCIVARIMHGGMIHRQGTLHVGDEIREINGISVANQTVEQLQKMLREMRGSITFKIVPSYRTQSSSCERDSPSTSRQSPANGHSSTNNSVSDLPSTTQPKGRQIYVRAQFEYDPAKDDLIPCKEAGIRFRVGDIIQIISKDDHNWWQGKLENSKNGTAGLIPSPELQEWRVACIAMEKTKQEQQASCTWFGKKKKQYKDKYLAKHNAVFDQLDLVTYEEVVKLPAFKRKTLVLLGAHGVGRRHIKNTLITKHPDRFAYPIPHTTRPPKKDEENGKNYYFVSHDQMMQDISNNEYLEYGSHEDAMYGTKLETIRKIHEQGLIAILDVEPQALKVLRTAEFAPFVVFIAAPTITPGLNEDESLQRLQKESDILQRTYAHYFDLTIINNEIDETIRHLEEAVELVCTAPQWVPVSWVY

Dual specificity mitogen-activated protein kinase kinase 5, sequence (Q13163 whole entry, the tested form may be a part): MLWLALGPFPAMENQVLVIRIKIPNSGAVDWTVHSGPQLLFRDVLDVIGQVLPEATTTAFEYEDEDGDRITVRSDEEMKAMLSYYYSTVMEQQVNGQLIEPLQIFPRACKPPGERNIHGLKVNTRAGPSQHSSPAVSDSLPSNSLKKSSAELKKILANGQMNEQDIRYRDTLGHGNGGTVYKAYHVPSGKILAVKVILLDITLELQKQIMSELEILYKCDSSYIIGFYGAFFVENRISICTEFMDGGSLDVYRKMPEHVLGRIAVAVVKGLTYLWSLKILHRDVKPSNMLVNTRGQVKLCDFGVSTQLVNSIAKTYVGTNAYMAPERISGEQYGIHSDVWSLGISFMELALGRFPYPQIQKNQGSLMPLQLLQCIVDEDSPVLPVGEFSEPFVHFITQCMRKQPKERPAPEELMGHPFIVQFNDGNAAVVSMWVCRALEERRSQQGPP
Mitogen-activated protein kinase 7, sequence (Q13164 whole entry): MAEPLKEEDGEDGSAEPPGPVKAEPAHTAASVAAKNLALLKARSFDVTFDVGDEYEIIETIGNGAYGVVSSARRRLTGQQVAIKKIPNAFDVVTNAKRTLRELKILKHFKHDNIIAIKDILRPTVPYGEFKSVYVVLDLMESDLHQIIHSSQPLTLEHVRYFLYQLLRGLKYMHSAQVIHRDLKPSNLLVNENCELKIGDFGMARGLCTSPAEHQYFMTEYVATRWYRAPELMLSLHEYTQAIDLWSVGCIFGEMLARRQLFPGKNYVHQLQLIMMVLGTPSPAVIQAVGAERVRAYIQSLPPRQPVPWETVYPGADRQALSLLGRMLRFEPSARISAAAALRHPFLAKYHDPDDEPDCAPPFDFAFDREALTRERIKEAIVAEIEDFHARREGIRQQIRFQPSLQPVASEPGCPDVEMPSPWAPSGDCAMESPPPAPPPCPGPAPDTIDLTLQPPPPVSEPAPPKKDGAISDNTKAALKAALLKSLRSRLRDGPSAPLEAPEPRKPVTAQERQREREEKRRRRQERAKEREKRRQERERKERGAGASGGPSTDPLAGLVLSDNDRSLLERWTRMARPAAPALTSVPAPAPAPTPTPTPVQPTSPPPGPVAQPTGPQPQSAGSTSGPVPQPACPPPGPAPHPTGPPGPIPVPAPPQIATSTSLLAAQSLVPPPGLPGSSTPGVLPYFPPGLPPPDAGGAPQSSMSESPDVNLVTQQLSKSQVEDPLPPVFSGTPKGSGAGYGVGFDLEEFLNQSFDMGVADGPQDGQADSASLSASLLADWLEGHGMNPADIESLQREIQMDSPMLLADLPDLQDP
Ribosomal protein S6 kinase alpha-2 (Homo sapiens), sequence (Q15349 whole entry, the tested form may be a part): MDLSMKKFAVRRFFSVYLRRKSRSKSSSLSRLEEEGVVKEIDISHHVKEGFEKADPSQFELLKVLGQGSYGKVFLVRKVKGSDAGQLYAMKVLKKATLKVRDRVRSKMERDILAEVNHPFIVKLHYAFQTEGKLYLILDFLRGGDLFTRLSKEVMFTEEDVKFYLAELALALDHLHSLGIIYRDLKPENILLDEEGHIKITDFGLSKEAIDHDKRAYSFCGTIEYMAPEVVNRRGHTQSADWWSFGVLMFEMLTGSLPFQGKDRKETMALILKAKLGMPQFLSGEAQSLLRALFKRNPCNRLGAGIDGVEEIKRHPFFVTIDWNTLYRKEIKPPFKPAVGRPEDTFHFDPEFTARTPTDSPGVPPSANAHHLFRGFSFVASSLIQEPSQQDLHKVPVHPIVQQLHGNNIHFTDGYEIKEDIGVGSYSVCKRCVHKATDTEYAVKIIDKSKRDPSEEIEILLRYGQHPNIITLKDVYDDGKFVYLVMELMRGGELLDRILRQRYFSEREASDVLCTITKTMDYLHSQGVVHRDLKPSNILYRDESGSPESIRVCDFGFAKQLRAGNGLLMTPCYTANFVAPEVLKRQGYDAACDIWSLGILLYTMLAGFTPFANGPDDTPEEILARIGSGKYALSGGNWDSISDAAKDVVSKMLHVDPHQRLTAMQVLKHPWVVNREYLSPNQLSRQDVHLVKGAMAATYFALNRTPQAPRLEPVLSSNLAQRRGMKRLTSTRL
STE20-like serine/threonine-protein kinase (Homo sapiens), sequence (Q9H2G2 whole entry, looked up, the tested form may be a part): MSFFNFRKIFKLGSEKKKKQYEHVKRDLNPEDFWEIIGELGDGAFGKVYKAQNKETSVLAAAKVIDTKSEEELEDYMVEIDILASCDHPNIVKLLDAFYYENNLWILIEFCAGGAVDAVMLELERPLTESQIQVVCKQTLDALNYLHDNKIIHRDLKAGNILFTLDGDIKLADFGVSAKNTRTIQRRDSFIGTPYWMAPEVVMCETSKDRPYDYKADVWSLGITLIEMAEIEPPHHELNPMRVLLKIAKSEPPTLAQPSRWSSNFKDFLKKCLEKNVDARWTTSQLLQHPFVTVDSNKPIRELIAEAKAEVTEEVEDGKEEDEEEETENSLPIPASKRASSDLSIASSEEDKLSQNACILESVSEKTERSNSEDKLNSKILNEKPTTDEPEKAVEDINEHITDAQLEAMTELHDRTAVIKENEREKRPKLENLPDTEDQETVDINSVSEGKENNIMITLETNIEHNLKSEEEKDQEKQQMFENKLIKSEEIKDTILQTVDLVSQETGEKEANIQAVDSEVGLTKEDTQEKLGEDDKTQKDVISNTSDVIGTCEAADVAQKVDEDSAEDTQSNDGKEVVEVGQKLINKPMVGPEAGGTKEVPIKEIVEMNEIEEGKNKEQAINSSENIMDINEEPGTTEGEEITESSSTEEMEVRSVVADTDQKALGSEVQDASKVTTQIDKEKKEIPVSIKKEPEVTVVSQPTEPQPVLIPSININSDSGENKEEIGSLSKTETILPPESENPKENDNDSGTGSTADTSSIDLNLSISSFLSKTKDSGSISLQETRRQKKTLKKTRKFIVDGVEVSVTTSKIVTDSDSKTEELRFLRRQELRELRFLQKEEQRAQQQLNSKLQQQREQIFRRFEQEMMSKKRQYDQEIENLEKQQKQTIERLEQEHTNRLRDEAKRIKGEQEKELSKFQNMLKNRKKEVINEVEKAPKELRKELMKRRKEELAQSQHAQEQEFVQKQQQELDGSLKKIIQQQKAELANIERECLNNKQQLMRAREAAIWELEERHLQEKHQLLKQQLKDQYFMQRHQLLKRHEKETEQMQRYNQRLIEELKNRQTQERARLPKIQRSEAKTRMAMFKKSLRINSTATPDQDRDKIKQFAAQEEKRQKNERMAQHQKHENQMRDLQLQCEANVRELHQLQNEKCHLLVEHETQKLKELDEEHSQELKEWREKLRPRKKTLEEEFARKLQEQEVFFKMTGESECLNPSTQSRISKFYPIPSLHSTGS
Tyrosine-protein kinase Tec (Homo sapiens), sequence (P42680 whole entry, looked up, the tested form may be a part): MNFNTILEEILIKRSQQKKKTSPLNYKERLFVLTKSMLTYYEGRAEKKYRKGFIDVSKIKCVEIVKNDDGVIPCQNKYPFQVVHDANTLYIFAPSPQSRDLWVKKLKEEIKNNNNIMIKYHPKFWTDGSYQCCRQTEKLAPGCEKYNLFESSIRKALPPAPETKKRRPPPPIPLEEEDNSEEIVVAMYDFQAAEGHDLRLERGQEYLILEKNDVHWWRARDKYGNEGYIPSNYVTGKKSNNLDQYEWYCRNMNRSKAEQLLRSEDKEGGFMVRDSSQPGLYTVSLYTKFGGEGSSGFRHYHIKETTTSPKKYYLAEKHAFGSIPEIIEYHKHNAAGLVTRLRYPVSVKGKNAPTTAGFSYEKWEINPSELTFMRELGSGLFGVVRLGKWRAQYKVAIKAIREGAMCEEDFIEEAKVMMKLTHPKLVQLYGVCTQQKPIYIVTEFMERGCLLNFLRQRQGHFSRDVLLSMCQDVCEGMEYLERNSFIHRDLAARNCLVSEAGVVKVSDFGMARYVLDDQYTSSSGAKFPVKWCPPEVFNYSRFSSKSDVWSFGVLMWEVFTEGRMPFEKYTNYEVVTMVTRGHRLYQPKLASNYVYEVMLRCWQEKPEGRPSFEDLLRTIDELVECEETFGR

IC50 [1] [nM] | IC50 [2] [nM] | SMILES | inhibition [3] [%] | inhibition [4] [%] | inhibition [5] [%] | inhibition [6] [%] | inhibition [7] [%] | inhibition [8] [%]
810 | 4.3 | CN(C)Cc1cccc(N/C(=C2\C(=O)Nc3cc(C(N)=O)ccc32)c2ccccc2)c1 | – | – | – | – | – | –
– | – | COc1cc(C(=O)N2CCC(N3CCN(C)CC3)CC2)ccc1Nc1ncc2c(n1)N1CCc3cccc(c31)C(=O)N2C | 13 | 5.2 | 49 | 46 | 100 | 100
